# Data from US20150164791A1, “CORNEAL SHAPING” (priority 2005, published 2015).
# Key:
# [1] = tested on: MMPs 1, 2 and 8; details: rat corneas; cited from earlier work
# [2] = tested on: MMP's 1, 2, 8 and 9; details: topical; rat cornea; animals with epithelial defects and with intact epithelium; cited from earlier work
# [3] = in vivo; cited from earlier work
# [4] = tested on: matrix metalloproteinases; assay: Activation of matrix metalloproteinases by gatifloxacin (established by the inventor)
smiles,measurement,setting,value
O=C(O)Cc1ccccc1Nc1c(Cl)cccc1Cl [Diclofenac],"expression of MMPs 1, 2 and 8",[1],induce expression
O=C(O)c1cn(C2CC2)c2cc(N3CCNCC3)c(F)cc2c1=O [ciprofloxacin],MMP levels in corneal epithelium and anterior stroma,[2],increased
"C[C@H]1c2cccc(O)c2C(O)=C2C(=O)[C@]3(O)C(O)=C(C(N)=O)C(=O)[C@@H](N(C)C)[C@@H]3[C@@H](O)[C@@H]21 [doxycyline, doxycycline]",corneal penetration,[3],penetrate the cornea well
same,tolerability,[3],well tolerated
COc1c(N2CCNC(C)C2)c(F)cc2c(=O)c(C(=O)O)cn(C3CC3)c12 (stereo not drawn) [gatifloxacin],activation of matrix metalloproteinases,[4],capable of activating matrix metalloproteinases
O=C(c1ccccc1)c1ccc2n1CCC2C(=O)O (stereo not drawn) [ketorolac],"expression of MMPs 1, 2 and 8",[1],induce expression
